In patent publication EP0922458A1, “Potentiation of temozolomide by an ATase inhibitor” (CANCER RESEARCH CAMPAIGN TECHNOLOGY LIMITED, priority 1993, dated 1994):
Read-outs that look alike come from different tables or passages of the source.

Assays:
[1] = system: human tumour cell lines; test: Single dose cytotoxicity, summary over the tumour cell lines; format: cell-based
Procedure: (§1) Cell lines were routinely grown as monolayers in DMEM supplemented with 10% foetal calf serum, 25mM HEPES, glutamine and penicillin/streptomycin. Cytotoxicity studies were carried out in HEPES-free medium in a 5% CO2 atmosphere. 750-1000 cells/well were plated in 96 well plates and, after overnight incubation, were treated for 2 hours with or without 33 µM BG. Temozolomide or CCNU was then added for 1 hour in the same medium, the final DMSO concentration not exceeding 1%. […] For the repeat temozolomide dozing schedule, cells were given consecutive 24 hour treatments, with fresh medium each day. Assays were carried out at least in duplicate.

[2] = system: U87MG; test: Single dose cytotoxicity (sulphorhodamine protein assay); format: cell-based, human; details: for IC50: Homo sapiens, U-87 MG, U87MG (astrocytoma), 1 hour drug; for Ratio IC50 [-BG]/IC50 [+BG]: U87MG
Procedure: as §1

[3] = system: U373; test: as above; format: cell-based, human; details: for IC50: Homo sapiens, U373 MG, U373 (astrocytoma), 1 hour drug; for Ratio IC50 [-BG]/IC50 [+BG]: U373
Procedure: as §1

[4] = system: ZR-75-1; test: as above; format: cell-based, human; details: for IC50: Homo sapiens, ZR-75-1 (breast), 1 hour drug; for Ratio IC50 [-BG]/IC50 [+BG]: ZR-75-1
Procedure: as §1

[5] = system: MAWI; test: as above; format: cell-based, human; details: for IC50: Homo sapiens, MAWI (colo-rectal), 1 hour drug; for Ratio IC50 [-BG]/IC50 [+BG]: MAWI
Procedure: as §1

[6] = system: MCF-7; test: as above; format: cell-based, human; details: for IC50: Homo sapiens, MCF7, MCF-7 (breast), 1 hour drug; for Ratio IC50 [-BG]/IC50 [+BG]: MCF-7
Procedure: as §1

[7] = system: LS174T; test: as above; format: cell-based, human; details: for IC50: Homo sapiens, LS174T (colo-rectal), 1 hour drug; for Ratio IC50 [-BG]/IC50 [+BG]: LS174T
Procedure: as §1

[8] = system: LOVO; test: as above; format: cell-based, human; details: for IC50: Homo sapiens, LOVO (colo-rectal), 1 hour drug; for Ratio IC50 [-BG]/IC50 [+BG]: LOVO
Procedure: as §1

[9] = system: SF767 cells; details: WO 91/13898; cited from earlier work
[10] = system: MAWI; test: Repeated dose temozolomide cytotoxicity; format: cell-based; details: Homo sapiens
Procedure: as §1

[11] = system: MCF-7; test: Repeated dose temozolomide cytotoxicity; format: cell-based; details: Homo sapiens
Procedure: as §1

[12] = system: U373; test: Repeated dose temozolomide cytotoxicity; format: cell-based, human; details: for IC50: Homo sapiens, U373 MG, U373, DAY 4 of repeated daily 24 hour doses
Procedure: as §1

[13] = system: control XP cells; test: Colony forming assay with BG pretreatment; format: cell-based; details: 10 µM BG 3 hours before, colonies after 7 days
Procedure: (§2) Human ATase cDNA-transfected or control XP cells [Fan et al., Nucleic Acid. Res., 18:5723 (1990)] were grown in MEM and 1000 cells/well were plated. After a 3 hour incubation, temozolomide, freshly diluted into MEM, was added and the plates incubated for 5 days. Survivals were assayed as described by Morten et al., Carcinogenesis, 13:483 (1992). In the BG experiments, 300 cells were plated in triplicate onto 9cm plates and allowed to attach for 5 hours. BG was added (10 µM in MEM) 3 hours prior to the treatment with temozolomide which was freshly diluted into MEM containing 10 µM BG. After 7 days, colonies were strained with Giemsa and counted.

[14] = molecular target: T1, O^6-alkylguanine DNA alkyltransferase (ATase) (Homo sapiens, UniProt P16455); test: O^6-alkylguanine DNA alkyltransferase assay of treated cells; format: cell-based; details: for IC50: three-hour incubation, read-out: concentration causing 50% reduction in ATase content; for ATase content after BG: concentrations of BG used
T1 construct: endogenous in cells; host or cells: human tumour cell lines U373, MCF-7, LOVO, MAWI (extracts of treated cells)
T1 sequence (P16455 1-207): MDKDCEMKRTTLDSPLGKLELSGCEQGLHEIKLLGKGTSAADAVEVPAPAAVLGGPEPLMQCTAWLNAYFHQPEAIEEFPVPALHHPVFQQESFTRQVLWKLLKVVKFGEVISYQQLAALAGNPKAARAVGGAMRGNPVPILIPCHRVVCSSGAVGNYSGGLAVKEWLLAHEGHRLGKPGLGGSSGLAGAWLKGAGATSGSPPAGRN
Procedure: This assay was carried out as described by Lee et al., Cancer Res., 51:619 (1991). Thus, varying amounts of cell extracts are incubated with DNA which contains O^6-methylguanine labelled with [^3H] in the methyl group, at preferably 37°C for 2 hours in a total volume of 300 µl of 1 mg/ml of bovine serum albumin in buffer 1. After incubation, bovine serum albumin (100µl of a 10 mg/ml solution in buffer 1) and perchloric acid (100µl of a 4 M solution) are added in rapid succession. A further 2 ml of 1M perchloric is added and the mixture heated at 75°C for 40 minutes to degrade the DNA to acid soluble material. The protein, which contains the methylated ATase, is then collected by centrifugation, washed with 4ml of 1M perchloric acid before being resuspended in 300 µl of 0.01M sodium hydroxide and dissolved in 3ml of aqueous scintillation fluid (Ecoscint A: National Diagnostics), and counted. The protein content of the cells was determined with a BioRad protein assay kit using bovine serum albumin as a standard. ATase activity is expressed as fmol methyl transferred to protein per mg of total protein in the extract.

[15] = system: control XP cells (pZip); test: Cytotoxicity in XP lines (MTT assay); format: cell-based; details: for IC50: 120 h, XP line with ATase < 2 fmol/mg protein (control pZip; printed on the line 'phAT'), MTT assay, 5 days, without BG; for sensitivity of control XP cells relative to human ATase cDNA-transfected cells: pZip versus phAT XP cells, Table I
Procedure: as §2

[16] = system: human ATase cDNA-transfected XP cells (phAT); test: Cytotoxicity in XP lines (MTT assay); format: cell-based; details: 120 h, XP line with ATase 1240 fmol/mg protein (phAT; printed on an unlabelled line), 5 days, without BG
Procedure: as §2

[17] = system: ZR-75-1; test: Cellular uptake of [^14C]-labelled temozolomide; format: in vitro ADME, human; details: 4°C, 200 µM labelled drug
Procedure: (§3) 8-carbamoyl-3-[^14C]methylimidazo[5,1-d]-1,2,3,5-tetrazin-4-(3H)-one (specific activity 26.3mCi/mmole) was kindly supplied by Dr. John Slack (Aston Molecules Ltd, Birmingham, UK). Cell suspensions (5 x 10^6/ml) were equilibrated at 4°C and treated with 200 µM of the labelled drug. 10^6 cells were pipetted into eppendorf tubes and centrifuged through 250µl of an oil mixture (4:1 "Three-in-One"/Dow Corning silicone oil). The aqueous layer was aspirated and the oil layer gently washed with a further 300 µl of saline. After centrifugation both layers were aspirated, the cell pellet dissolved in a tissue solubilizer such as Protosol® (quaternary ammonium hydroxide in toluene) and added to scintillation vials containing Optiphase® (95-99% diisopropylnaphthalene).

[18] = system: MAWI; test: Cellular uptake of [^14C]-labelled temozolomide; format: in vitro ADME, human; details: 4°C, 200 µM labelled drug
Procedure: as §3

[19] = Stability in tissue culture medium (HPLC analysis); format: physicochemical; details: 37°C

O=NN(CCCl)C(=O)NC1CCCCC1 [CCNU, lomustine]
increase in toxicity (sensitivity) after pretreatment with a single non-toxic dose of BG ([1]; single dose, over the tumour cell lines): ≤ 6 fold
toxicity on a molar basis relative to temozolomide ([1]; slopes of IC50 versus ATase content, Figure 1): approximately five
IC50 ([2]; 2 hours 33 µM BG before): 8.8 µM
IC50 ([2]; without BG): 28 µM
Ratio IC50 [-BG]/IC50 [+BG] [2]: 3.2
IC50 ([3]; 2 hours 33 µM BG before): 12 µM
IC50 ([3]; without BG): 15 µM
Ratio IC50 [-BG]/IC50 [+BG] [3]: 1.2
IC50 ([4]; 2 hours 33 µM BG before): 25 µM
IC50 ([4]; without BG): 12 µM
Ratio IC50 [-BG]/IC50 [+BG] [4]: 0.5
IC50 ([5]; 2 hours 33 µM BG before): 30 µM
IC50 ([5]; without BG): 133 µM
Ratio IC50 [-BG]/IC50 [+BG] [5]: 4.4
IC50 ([6]; 2 hours 33 µM BG before): 31 µM
IC50 ([6]; without BG): 70 µM
Ratio IC50 [-BG]/IC50 [+BG] [6]: 2.2
IC50 ([7]; 2 hours 33 µM BG before): 13 µM
IC50 ([7]; without BG): 73 µM
Ratio IC50 [-BG]/IC50 [+BG] [7]: 5.7
IC50 ([8]; 2 hours 33 µM BG before): 32 µM
IC50 ([8]; without BG): 92 µM
Ratio IC50 [-BG]/IC50 [+BG] [8]: 2.9

CC1CCC(NC(=O)N(CCCl)N=O)CC1 (stereo not drawn) [Me CCNU]
decrease in the ED50 when combined with O^6-benzylguanine [9]: 3.8 fold

Cn1nnc2c(C(N)=O)ncn2c1=O [temozolomide, 8-carbamoyl-3-methylimidazo[5,1-d]-1,2,3,5,-tetrazin-4-(3H)-one]
IC50 ([10]; 24 h, DAY 1, with BG): 196 µM
IC50 ([10]; 24 h, DAY 1, without BG): 319 µM
IC50 ([10]; 48 h, DAY 2, with BG): 59 µM
IC50 ([10]; 48 h, DAY 2, without BG): 350 µM
IC50 ([10]; 72 h, DAY 3, with BG): 21 µM
IC50 ([10]; 72 h, DAY 3, without BG): 383 µM
IC50 ([10]; 96 h, DAY 4, with BG): 7.2 µM
IC50 ([10]; 96 h, DAY 4, without BG): 383 µM
IC50 ([10]; 120 h, DAY 5, with BG): 1 µM
IC50 ([10]; 120 h, DAY 5, without BG): 326 µM
IC50 ([11]; MCF7, 24 h, DAY 1, with BG): 89 µM
IC50 ([11]; MCF7, 24 h, DAY 1, without BG): 319 µM
IC50 ([11]; MCF7, 48 h, DAY 2, with BG): 51 µM
IC50 ([11]; MCF7, 48 h, DAY 2, without BG): 319 µM
IC50 ([11]; MCF7, 72 h, DAY 3, with BG): 11 µM
IC50 ([11]; MCF7, 72 h, DAY 3, without BG): 375 µM
difference in the single dose cytotoxicity between MCF-7 and the colorectal lines (LOVO and MAWI) ([1]; single dose): 3-4 fold
IC50 ([2]; 2 hours 33 µM BG before): 131 µM
IC50 ([2]; without BG): 172 µM
Ratio IC50 [-BG]/IC50 [+BG] [2]: 1.3
IC50 ([3]; 2 hours 33 µM BG before): 78 µM
IC50 ([3]; without BG): 131 µM
Ratio IC50 [-BG]/IC50 [+BG] [3]: 1.7
IC50 ([4]; 2 hours 33 µM BG before): 23 µM
IC50 ([4]; without BG): 32 µM
Ratio IC50 [-BG]/IC50 [+BG] [4]: 1.4
IC50 ([5]; 2 hours 33 µM BG before): 335 µM
IC50 ([5]; without BG): 1170 µM
Ratio IC50 [-BG]/IC50 [+BG] [5]: 3.5
IC50 ([6]; 2 hours 33 µM BG before): 171 µM
IC50 ([6]; without BG): 325 µM
Ratio IC50 [-BG]/IC50 [+BG] [6]: 1.9
IC50 ([7]; 2 hours 33 µM BG before): 632 µM
IC50 ([7]; without BG): 873 µM
Ratio IC50 [-BG]/IC50 [+BG] [7]: 1.4
IC50 ([8]; 2 hours 33 µM BG before): 323 µM
IC50 ([8]; without BG): 848 µM
Ratio IC50 [-BG]/IC50 [+BG] [8]: 2.6
IC50 ([12]; with BG): 18 µM
IC50 ([12]; without BG): 51 µM
potentiation of temozolomide toxicity by BG ([12]; U373 cells, four 24 hour doses, BG present): 3 fold
effect of BG pretreatment on cytotoxicity of temozolomide [13]: no measurable effect
IC50 ([14]; LOVO): 50 to 100 µM
IC50 ([14]; MAWI): 50 to 100 µM
IC50 ([14]; MCF-7): 50 to 100 µM
IC50 ([14]; U373): 50 to 100 µM
IC50 [15]: 23 µM
sensitivity of control XP cells relative to human ATase cDNA-transfected cells [15]: 4-5 fold
IC50 [16]: 100 µM
time to complete uptake [17]: ≤ 5 min
time to complete uptake [18]: ≤ 5 min

Nc1nc(OCc2ccccc2)c2[nH]cnc2n1 [BG, O^6-benzylguanine]
stable in tissue culture medium [19]: at least 24 hours
ATase content after BG ([14]; MAWI cells): undetectable level
ATase content after BG ([14]; human ATase cDNA transfected XP fibroblasts): undetectable level

NC(=O)c1ncn2c(=O)n(CCCl)nnc12 [mitozolomide, 8-carbamoyl-3-(2-chloroethyl)imidazo[5,1-d]-1,2,3,5-tetrazin-4-(3H)-one]
IC50 [15]: 0.8 µM
sensitivity of control XP cells relative to human ATase cDNA-transfected cells [15]: 4-5 fold
IC50 [16]: 4.2 µM
